Laboratory results: PMC7686313, “Phase 1 study of mTORC1/2 inhibitor sapanisertib (TAK-228) in advanced solid tumours, with an expansion phase in renal, endometrial or bladder cancer” (British Journal of Cancer, 2020)

Experiment: Safety (adverse events, NCI CTCAE v4.0), dose-escalation phase
[1] = dose-escalation QD × 5dQW 7–13 mg
[2] = dose-escalation Total (n = 116)

Procedure: Patients who received ≥1 dose of sapanisertib were included in the safety population. […] Adverse events (AEs) were assessed using the National Cancer Institute Common Terminology Criteria for Adverse Events, v4.0. Patients were provided with a home blood-glucose meter to monitor their fasting predose blood-glucose measurements to assess hyperglycaemia as an on-target AE and PD marker.

## CC(C)n1nc(-c2ccc3oc(N)nc3c2)c2c(N)ncnc21 [Sapanisertib]
[1]
  Fatigue, treatment-related grade ≥3 AE: 2 (9) n (%)
  Headache, treatment-related AE: 1 (5) n (%)
  Hypercholesterolemia, treatment-related AE: 1 (5) n (%)
  Hyperglycaemia, treatment-related AE: 11 (50) n (%)
  Hyperglycaemia, treatment-related grade ≥3 AE: 1 (5) n (%)
  Hypophosphatemia, treatment-related AE: 2 (9) n (%)
  Hypophosphatemia, treatment-related grade ≥3 AE: 0 (0) n (%)
  Lymphopenia, treatment-related grade ≥3 AE: 0 (0) n (%)
  Nausea, treatment-related AE: 13 (59) n (%)
  Nausea, treatment-related grade ≥3 AE: 1 (5) n (%)
  On-study deaths: 0 n (%)
  Pruritus generalised, treatment-related AE: 1 (5) n (%)
  Pruritus generalised, treatment-related grade ≥3 AE: 0 (0) n (%)
  Pruritus, treatment-related AE: 3 (14) n (%)
  Rash maculo-papular, treatment-related AE: 2 (9) n (%)
  Rash maculo-papular, treatment-related grade ≥3 AE: 1 (5) n (%)
  Rash, treatment-related AE: 3 (14) n (%)
  Rash, treatment-related grade ≥3 AE: 0 (0) n (%)
  Stomatitis (includes oropharyngeal pain and mucosal inflammation), treatment-related AE: 13 (59) n (%)
  Stomatitis, treatment-related grade ≥3 AE: 3 (14) n (%)
  Thrombocytopenia, treatment-related grade ≥3 AE: 0 (0) n (%)
  Vomiting, treatment-related AE: 10 (45) n (%)
  Weight decreased, treatment-related AE: 2 (9) n (%)
dose-escalation QW 7–40 mg
  Acute kidney injury, treatment-related AE: 0 (0) n (%)
  Anaemia, treatment-related AE: 1 (3) n (%)
  Any AE: 30 (100) n (%)
  Any AE resulting in dose modification/interruption: 13 (43) n (%)
  Any AE resulting in treatment discontinuation: 4 (13) n (%)
  Any SAE: 10 (33) n (%)
  Any grade ≥3 AE: 18 (60) n (%)
  Any treatment-related AE: 28 (93) n (%)
  Any treatment-related SAE: 0 n (%)
  Any treatment-related grade ≥3 AE: 8 (27) n (%)
  Asthenia, treatment-related AE: 12 (40) n (%)
  Asthenia, treatment-related grade ≥3 AE: 1 (3) n (%)
  Blood creatinine increased, treatment-related AE: 3 (10) n (%)
  Decreased appetite, treatment-related AE: 8 (27) n (%)
  Dehydration, treatment-related AE: 1 (3) n (%)
  Dehydration, treatment-related grade ≥3 AE: 0 (0) n (%)
  Diarrhoea, treatment-related AE: 9 (30) n (%)
  Diarrhoea, treatment-related grade ≥3 AE: 1 (3) n (%)
  Dry mouth, treatment-related AE: 3 (10) n (%)
  Dysgeusia, treatment-related AE: 3 (10) n (%)
  Dyspepsia, treatment-related AE: 1 (3) n (%)
  Fatigue, treatment-related AE: 8 (27) n (%)
  Fatigue, treatment-related grade ≥3 AE: 2 (7) n (%)
  Headache, treatment-related AE: 2 (7) n (%)
  Hypercholesterolemia, treatment-related AE: 1 (3) n (%)
  Hyperglycaemia, treatment-related AE: 17 (57) n (%)
  Hyperglycaemia, treatment-related grade ≥3 AE: 2 (7) n (%)
  Hypophosphatemia, treatment-related AE: 0 (0) n (%)
  Hypophosphatemia, treatment-related grade ≥3 AE: 0 (0) n (%)
  Lymphopenia, treatment-related grade ≥3 AE: 1 (3) n (%)
  Nausea, treatment-related AE: 22 (73) n (%)
  Nausea, treatment-related grade ≥3 AE: 0 (0) n (%)
  On-study deaths: 1 (3) n (%)
  Pruritus generalised, treatment-related AE: 0 (0) n (%)
  Pruritus generalised, treatment-related grade ≥3 AE: 0 (0) n (%)
  Pruritus, treatment-related AE: 2 (7) n (%)
  Rash maculo-papular, treatment-related AE: 0 (0) n (%)
  Rash maculo-papular, treatment-related grade ≥3 AE: 0 (0) n (%)
  Rash, treatment-related AE: 2 (7) n (%)
  Rash, treatment-related grade ≥3 AE: 0 (0) n (%)
  Stomatitis (includes oropharyngeal pain and mucosal inflammation), treatment-related AE: 9 (30) n (%)
  Stomatitis, treatment-related grade ≥3 AE: 0 (0) n (%)
  Thrombocytopenia, treatment-related grade ≥3 AE: 0 (0) n (%)
  Vomiting, treatment-related AE: 17 (57) n (%)
  Weight decreased, treatment-related AE: 2 (7) n (%)
[2]
  Acute kidney injury, treatment-related AE: 1 (1) n (%)
  Anaemia, treatment-related AE: 5 (4) n (%)
  Any AE: 116 (100) n (%)
  Any AE resulting in dose modification/interruption: 68 (59) n (%)
  Any AE resulting in treatment discontinuation: 28 (24) n (%)
  Any SAE: 50 (43) n (%)
  Any grade ≥3 AE: 76 (66) n (%)
  Any treatment-related AE: 112 (97) n (%)
  Any treatment-related SAE: 17 (15) n (%)
  Any treatment-related grade ≥3 AE: 49 (42) n (%)
  Asthenia, treatment-related AE: 37 (32) n (%)
  Asthenia, treatment-related grade ≥3 AE: 9 (8) n (%)
  Blood creatinine increased, treatment-related AE: 12 (10) n (%)
  Decreased appetite, treatment-related AE: 43 (37) n (%)
  Dehydration, treatment-related AE: 5 (4) n (%)
  Dehydration, treatment-related grade ≥3 AE: 1 (1) n (%)
  Diarrhoea, treatment-related AE: 41 (35) n (%)
  Diarrhoea, treatment-related grade ≥3 AE: 2 (2) n (%)
  Dry mouth, treatment-related AE: 12 (10) n (%)
  Dysgeusia, treatment-related AE: 19 (16) n (%)
  Dyspepsia, treatment-related AE: 3 (3) n (%)
  Fatigue, treatment-related AE: 35 (30) n (%)
  Fatigue, treatment-related grade ≥3 AE: 4 (3) n (%)
  Headache, treatment-related AE: 6 (5) n (%)
  Hypercholesterolemia, treatment-related AE: 11 (9) n (%)
  Hyperglycaemia, treatment-related AE: 75 (65) n (%)
  Hyperglycaemia, treatment-related grade ≥3 AE: 16 (14) n (%)
  Hypophosphatemia, treatment-related AE: 7 (6) n (%)
  Hypophosphatemia, treatment-related grade ≥3 AE: 3 (3) n (%)
  Lymphopenia, treatment-related grade ≥3 AE: 5 (4) n (%)
  Nausea, treatment-related AE: 71 (61) n (%)
  Nausea, treatment-related grade ≥3 AE: 3 (3) n (%)
  On-study deaths: 4 (3) n (%)
  Pruritus generalised, treatment-related AE: 15 (13) n (%)
  Pruritus generalised, treatment-related grade ≥3 AE: 3 (3) n (%)
  Pruritus, treatment-related AE: 8 (7) n (%)
  Rash maculo-papular, treatment-related AE: 6 (5) n (%)
  Rash maculo-papular, treatment-related grade ≥3 AE: 3 (3) n (%)
  Rash, treatment-related AE: 20 (17) n (%)
  Rash, treatment-related grade ≥3 AE: 2 (2) n (%)
  Stomatitis (includes oropharyngeal pain and mucosal inflammation), treatment-related AE: 56 (48) n (%)
  Stomatitis, treatment-related grade ≥3 AE: 8 (7) n (%)
  Thrombocytopenia, treatment-related grade ≥3 AE: 2 (2) n (%)
  Vomiting, treatment-related AE: 53 (46) n (%)
  Weight decreased, treatment-related AE: 7 (6) n (%)
